Results on six compounds are retold here after patent publication US6962909B2, “Treatment of neovascularization disorders with squalimine” (Genaera Corporation, priority 1995, dated 2005).

The test system of data set [1] is Stage 59-60 Xenopus tadpoles. Nature of the data set: Xenopus tadpole assay. The class given is in vivo, Xenopus laevis. As to conditions: 10 μg/ml in water. An excerpt: A newly developed assay employing tadpoles, preferably Xenopus laevis Stages 59-60, were employed to study the effect of a compound by monitoring capillary occlusion in the tadpole's tail. […] The compounds of the invention affect the shape, viability and integrity of the embryonic tissues while not affecting the adult tissues, providing a powerful, highly specific screen. For example, substances that destroy all of the animal's epithelium, both adult and embryonic, could be regarded as toxic.
In this assay, tadpoles are introduced into Petri dishes containing a solution of the test compound in distilled water, preferably about 100 ml. The preferred concentration of the test compound is from about 1 μg/ml to about 10 μg/ml. The volume of liquid is sufficient for the animal to swim freely and drink from the solution. Thus, the effect observed results from oral absorption and subsequent systemic distribution of the agent. If the volume of liquid is not sufficient to permit oral intake, the effects that are observed would result from absorption through the surface epithelium. Thus, this simple assay can identify if an compound has characteristics of oral availability.
After an amount of time, typically about 60 minutes, the occlusion of blood flow through capillaries in the tadpole's tail are observed under an inverted microscope at a magnification of roughly 100×.
The tadpole assay described above provides an advantageous way to determine the pharmacological targets of each steroid when introduced into a mammal, and to determine pharmacological categories into which synthetic compounds belong. In the assay, each of the steroids was dissolved in 100 ml of distilled water at a concentration of 10 μg/ml. Stage 59-60 Xenopus tadpoles were introduced and evaluated by light microscopy and gross observation 1 hour later.

In data set [2] the test system is PHA-stimulated human lymphocytes. Briefly: Inhibition of mitogen-stimulated growth of human T-cells. In kind it is cell-based. As to conditions: 10 μg/ml; 72 hours. The method, then:
Human heparinized blood, freshly collected, was introduced into tissue culture flasks containing 10 μg/ml phytohaemagglutinin (PHA) in RPMI medium with 10% FCS. Various purified steroids were introduced subsequently at concentrations of 1, 5, and 10 μg/ml. Cultures were incubated for 72 hours, after which time colcemid was added to 1 μg/ml. Cultures were maintained for an additional 2 hours, and cells collected. Mitotic figures were estimated using standard cytochemical techniques, following Giemsa staining.

For data set [3], the system named is Human ovarian carcinoma SKOV3. Nature of the data set: In vitro cell growth inhibition (assay of Baker et al.). In kind it is cell-based. The method, then: (§1) As set forth in Table 7 below, all malignant tumors evaluated in tissue culture, endothelial cells and vascular smooth muscle cells were sensitive to inhibition. Thus, compound 1436 has application in the control of growth factor dependent proliferation of many types of tissue.
Using the assay described above, the anticancer effects of compound 1437 against several cancer lines was assessed.

A short description of data set [4]: Fasting blood glucose in mice. In kind it is in vivo. The procedure:
To study the effect of steroid administrator or the NHE responsible for secretion of insulin, several of the aminosterols from shark liver were administered to fasting mice. Male CD-1 mice were assigned to one of four treatment groups. Whole blood glucose was tested using glucometer (Lifescan Glucometer II and One Touch test strips). Statistical analysis was via one-way analysis of variance (ANOVA) followed by subsequent Bonferonni's t-test.

Data set [5] deals with human microvascular cells. Briefly: Endothelial cord formation assay. In kind it is cell-based. The source says: Endothelial cells have the capacity in vitro to form tubular aggregates resembling capillaries in various early stages of formation. This conversion occurs under relatively specific conditions, in which essential growth factors along with an effective substratum are provided. It has been shown that both the interaction of growth factors with the endothelial cell and its attachment to a substratum activate the NHE. The activation of this exchanger is believed to be required for subsequent morphologic transformation of the endothelial cell into a multicellular tubular structure.
To assess the effect of compounds on the cord-like structures formed by human microvascular cells when plated in the presence of VGEF (Vascular Endothelial Growth Factor) and basic fibroblast growth factor on a collagen matrix, a standard cord formation assay was used.

The subject of data set [6] is vitelline capillaries of 3- to 5-day chick embryo. Briefly: Chick embryo vitelline capillary regression assay. The class given is in vivo. Details: key to Vascular reactivity (capillary regression): + = Vascular reactivity; 0 = No vascular reactivity; +/− = Equivocal reactivity. The conditions noted are these: for Vascular reactivity (capillary regression): 60 minutes. An outline of the steps:
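Compounds were applied onto the 3- to 5-day embryo in 0.1 ml 15% Ficol 400 in PBS. Vascular regression was assessed visually after 60 min, scoring capillary constriction and pinching-off into enclosed blood-island-like sacs.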

The next data set relates to Lewis lung carcinoma. Nature of the data set: In vitro cell growth inhibition (assay of Baker et al.). In kind it is cell-based.
Description: as §1

The next data set concerns Human melanoma WM 1167. Nature of the data set: Cytotoxic activity against cancer cells.
A further data set relates to B16 melanoma. Briefly: Growth of B16 melanoma in C57B mice. The class given is in vivo. As to conditions: subcutaneous administration. The procedure:
The growth of B16 melanoma in C57B mice is dependent upon neovascularization.
Using the growth of B16 melanoma cells in C57B mice, a recognized model for the evaluation of inhibitors of angiogenesis on the growth of cancers, the effects of subcutaneous, intraperitoneal and oral administration of squalamine were evaluated.
Animals were implanted with B16 melanoma followed by treatment with compound 1436 or 1256 administered in a combined schedule or separately. […] Thus, a combination of these two compounds achieves a therapeutic benefit in tumors dependent on neovascularization that may prevent metastatic spread.

The nature of the next data set: Mouse IV PK study. As to conditions: in vivo. The procedure:
To assess clearance, a mouse IV PK study was performed for compound 319 and squalamine. The compound was administered i.v. and blood samples were taken every 10 minutes. The concentration of the administered steroid was determined by HPLC analysis.

A further data set can be described thus: MTT (Table II). The class given is cell-based. An excerpt:
As set forth in Table II, which follows Table I, the activities of natural and synthetic aminosterols in the different assays vary. In light of the foregoing, it is now possible to screen for steroids with or without squalamine-like pharmacological activity.

In brackets after ≈: the same amount, converted by molar mass. Entries after “also recorded” stand apart in the source; their conditions may differ.

In the case of `CC(CCC(CO)(OS(=O)(=O)O)C(C)C)[C@H]1CCC2C3C(CC[C@@]21C)[C@@]1(C)CC[C@H](NCCCNCCCCN)C[C@@H]1C[C@H]3O` (stereo partly drawn) [Compound 1437], in data set [1] (about 1 hour), the “Pharmacological response observed in tadpole” value is “Epithelium covering the embryonic portions of the animal, such as the tail and antennae, began to slough off in sheets; also recorded: the larval skin was observed to shed off in a sheet”. Further, in data set [2], the “Inhibition of PHA-stimulated human lymphocytes” value is recorded as 10 % control. Besides, the Anticancer activity entry in data set [3] is “exhibit anticancer activity”. In [4] (intravenous, 1436 in D5W (5% glucose), 1437 in water), the “Effect on blood glucose” value is given as “caused hyperglycemia in mice”. Further, the “Fasting Blood Glucose Mean + SEM” value in data set [4] (male CD-1 mice, 2 × 10 mg/kg i.v. (total 20 mg/kg), overnight fast, blood 30 min. after 2d dose, 1437 and 1256 in H2O, 1436 in D5W) came to 82 ± 15.3 mg/dL.
As to `CC(C)CCCC(C)[C@H]1CCC2C3CC[C@H]4C[C@@H](NCCCNCCCCNCCCN)CC[C@]4(C)C3CC[C@@]21C` (stereo partly drawn) [Compound 353], the “Effect on endothelial cord formation” value in [5] (0.1 μg/ml), in data set [5] (1.0 μg/ml) and in data set [5] (10.0 μg/ml) was “+” in each case. The “Vascular reactivity (capillary regression)” value in [6] (1 μg applied) is recorded as “+/−”. Besides, the “Effect on chick embryo capillary bed” value in [6] (in vivo) is reported as “no effect on the chick embryo capillary bed”. The “Pharmacological category in tadpole assay (similarity to a reference steroid)” value in [1] is “effects like those produced by compound 1436”. Moreover, the values for the IC50 in the data set with Lewis lung carcinoma and in the data set on Human melanoma WM 1167 (Homo sapiens) were 1.9 µg/mL (≈ 3.32 µM) and 3 µg/mL (≈ 5.24 µM), respectively. The “Mechanism of cell death in exposed cells” value in the data set on Human melanoma WM 1167 is given as “apoptotic cell death has been induced”.
For `CC(CCC(=O)O)[C@H]1CCC2C3CC[C@H]4C[C@@H](NCCCNCCCCN)CC[C@]4(C)C3CC[C@@]21C` (stereo partly drawn) [Compound 319], the “Effect on endothelial cord formation” value in [5] (0.01 μg/ml) is “−”; in data set [5] (0.1 μg/ml), “+”; in data set [5] (1.0 μg/ml), “+”; in [5] (10.0 μg/ml), “+”. Besides, the “Vascular reactivity (capillary regression)” value is listed as “+/−” in data set [6] (0.001 μg applied); “+” in [6] (0.01 μg applied); “+” in data set [6] (0.1 μg applied); “+” in data set [6] (1 μg applied); “+” in data set [6] (10 μg applied). In addition, in data set [1], the “Pharmacological category in tadpole assay (similarity to a reference steroid)” value is recorded as “common vascular occlusive effect”. Besides, the “Control of B16 melanoma” value in the data set with B16 melanoma is “achieved control of B16 in C57B mice to an extent almost comparable to squalamine”. The compound further returned a half-life in “Mouse IV PK study” of around 14 min.
`CC(CC[C@@H](OS(=O)(=O)O)C(C)C)[C@H]1CCC2C3C(CC[C@@]21C)[C@@]1(C)CC[C@H](NCCCNCCCCNCCCN)C[C@@H]1C[C@H]3O` (stereo partly drawn) [drawing 170] yielded an MTT in “MTT (Table II)” of 67 µg/mL.
On to `CC(CC[C@@H](OS(=O)(=O)O)C(C)C)[C@H]1CCC2C3C(CC[C@@]21C)[C@@]1(C)CC[C@H](NCCCNCCCCN)C[C@@H]1C[C@H]3O` (stereo partly drawn) [drawing 164], for which, in “MTT (Table II)”, the MTT worked out at 32 µg/mL.
Regarding `CC(C)CCCC(C)[C@H]1CCC2C3CC[C@H]4C[C@@H](NCCCNCCCCNCCCN)CC[C@]4(C)C3CC[C@@]21C` (stereo partly drawn) [drawing 96], the “Cord Formation, Minimum Effective Concentration” value in [5] was determined as 10 µg/mL. This compound gave an MTT in the data set “MTT (Table II)” of 19 µg/mL.

As a reminder, the IC50 is the concentration at which inhibition is half-maximal. The half-life is the time needed for the level to fall by half in the phase considered.
